The term IC50 denotes the midpoint of a concentration-inhibition curve. What is called ED50 is the dose at which the effect has come halfway, by size or by number of responders. A low value points to greater potency.

Bounds are passed on as bounds.

One assay concerns the target Coagulation factor X (Homo sapiens, UniProt P00742). Kind of assay: Inhibitory concentration against human Coagulation factor X.
A further assay has as its target Prothrombin (Homo sapiens, UniProt P00734). Kind of assay: Inhibitory concentration against Coagulation factor II.
A further assay is filed under the species Mus musculus. Kind of assay: Concentration required to produce 50% inhibition of tissue factor-induced platelet aggregation in disseminated intravascular coagulation (DIC) mouse model. Format: functional.

Coagulation factor X, sequence (P00742 41-179 limits assumed): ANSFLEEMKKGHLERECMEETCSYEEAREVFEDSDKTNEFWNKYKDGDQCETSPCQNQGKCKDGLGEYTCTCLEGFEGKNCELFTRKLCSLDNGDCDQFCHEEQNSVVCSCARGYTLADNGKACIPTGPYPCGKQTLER
Coagulation factor X, sequence (P00742 235-488 limits assumed): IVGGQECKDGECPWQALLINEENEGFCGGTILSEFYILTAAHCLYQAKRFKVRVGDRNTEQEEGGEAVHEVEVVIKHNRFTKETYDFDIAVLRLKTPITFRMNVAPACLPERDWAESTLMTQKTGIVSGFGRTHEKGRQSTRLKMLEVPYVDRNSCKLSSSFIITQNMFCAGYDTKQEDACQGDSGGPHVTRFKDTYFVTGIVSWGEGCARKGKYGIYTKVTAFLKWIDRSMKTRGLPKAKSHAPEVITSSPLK

With `CC(=N)N1CCC(Oc2ccc(OCc3nc4cc(C(=N)N)ccc4n3CC(=O)NC3CCCCC3)cc2)CC1`, the concentration for half-maximal inhibition (IC50) on Coagulation factor X is 40 nM; against Prothrombin, more than 10000 nM.

In the case of `CC(=N)N1CCC(Oc2ccc(OCc3nc4cc(C(=N)N)ccc4n3CC(=O)Nc3ccc(Cl)c(Cl)c3)cc2)CC1`, the IC50 is 60 nM against Coagulation factor X and more than 10000 nM against Prothrombin.

For `CC(=N)N1CC[C@H](Oc2ccc(CCc3cc4cc(C(=N)N)ccc4o3)cc2)C1`, the values for the half-inhibitory concentration (IC50) against Coagulation factor X and on Prothrombin were 600 nM and more than 10000 nM, respectively.

In turn, `CC(=N)N1CCC(Oc2ccc(N(Cc3nc4cc(C(=N)N)ccc4n3CC(=O)NC3CCCCC3)C(=O)c3ccc(C(=O)O)cc3)cc2)CC1.Cl.Cl` had an ED50 in the assay listed under Mus musculus of 0.2 mg/kg.

For `CC(=N)N1CCC(Oc2ccc(OCc3nc4cc(C(=N)N)ccc4n3CC(=O)NC(C)c3ccccc3)cc2)CC1` (centres undefined), the 50% inhibitory concentration (IC50) against Coagulation factor X was 30 nM; on Prothrombin it was more than 10000 nM.

The molecule `CC(=N)N1CC[C@H](Oc2ccc([C@H](Cc3ccc4ccc(C(=N)N)cc4c3)C(=O)O)cc2)C1.Cl` [DX-9065A HYDROCHLORIDE HYDRATE] registered a median effective dose (ED50) in the assay filed under Mus musculus of 0.5 mg/kg.

Regarding `CC(=N)N1CCC(Oc2ccc(N(Cc3nc4cc(C(=N)N)ccc4n3CC(=O)NC(C)(C)c3ccccc3)C(=O)c3ccc(C(=O)O)cc3)cc2)CC1`, the IC50 against Coagulation factor X is 200 nM; against Prothrombin it was more than 10000 nM.

With `CC(=N)N1CCC(Oc2ccc(OCc3nc4cc(C(=N)N)ccc4n3CC(=O)N3CCCCC3)cc2)CC1`, the IC50 was 3000 nM at Coagulation factor X and more than 10000 nM against Prothrombin.

On to `CC(=N)N1CCC(Oc2ccc(N(Cc3nc4cc(C(=N)N)ccc4n3CC(=O)NC3CCCCC3)C(=O)c3ccc(C(=O)O)cc3)cc2)C1` (centres undefined), for which the IC50 was 100 nM on Coagulation factor X and more than 10000 nM on Prothrombin.

With `CC(=N)N1CCC(Oc2ccc(OCc3nc4cc(C(=N)N)ccc4n3CC(=O)NCc3ccc(Cl)c(Cl)c3)cc2)CC1`, the IC50 against Coagulation factor X was 30 nM; against Prothrombin, more than 10000 nM.

Take `CCn1c(COc2ccc(OC3CCN(C(C)=N)CC3)cc2)nc2cc(C(=N)N)ccc21`: the results for the IC50 at Coagulation factor X and at Prothrombin were 400 nM and more than 10000 nM, respectively.

With `N=C(N)c1ccc(Oc2ccc(N(Cc3nc4cc(C(=N)N)ccc4n3CC(=O)NC3CCCCC3)C(=O)c3ccc(C(=O)O)cc3)cc2)cc1`, the IC50 on Coagulation factor X was 2000 nM; against Prothrombin it was more than 10000 nM.

For the molecule `CC(=N)N1CCC(Oc2ccc(OCc3nc4cc(C(=N)N)ccc4n3CC(=O)NCc3ccccc3)cc2)CC1`, the IC50 at Coagulation factor X was 100 nM; on Prothrombin it was more than 10000 nM.

On to `N=C(N)c1ccc2c(c1)nc(CN(C(=O)c1ccc(C(=O)O)cc1)c1ccc(OC3CCN(C(=N)NCc4ccccc4)CC3)cc1)n2CC(=O)NC1CCCCC1`, for which the 50% inhibitory concentration (IC50) at Prothrombin was more than 10000 nM.

For `CC(=N)N1CCC(Oc2ccc(OCc3nc4cc(C(=N)N)ccc4n3CC(=O)Nc3ccccc3)cc2)CC1`, the IC50 at Coagulation factor X was 100 nM; at Prothrombin it was more than 10000 nM.

On to `CC(=N)N1CCC(Oc2ccc(OCc3nc4cc(C(=N)N)ccc4n3CC(=O)NCC3CCCCC3)cc2)CC1`, for which the IC50 at Coagulation factor X was 300 nM; at Prothrombin, more than 10000 nM.

With `CC(=N)N1CCC(Oc2ccc(OCc3nc4cc(C(=N)N)ccc4n3CC(=O)NCCCc3ccccc3)cc2)CC1`, the IC50 on Coagulation factor X is 200 nM; on Prothrombin, more than 10000 nM.

For `CC(=N)N1CCC(Oc2ccc(N(Cc3nc4cc(C(=N)N)ccc4n3CC(=O)NCc3ccc(Cl)c(Cl)c3)C(=O)c3ccc(C(=O)O)cc3)cc2)CC1.Cl.Cl`, the values for the IC50 at Coagulation factor X and against Prothrombin were 6 nM and more than 10000 nM, respectively. The same molecule yielded an ED50 in the assay filed under Mus musculus of 0.7 mg/kg.

With `CC(=N)N1CCC(Oc2ccc(N(Cc3nc4cc(C(=N)N)ccc4n3CC(=O)Nc3ccc(Cl)c(Cl)c3)C(=O)c3ccc(C(=O)O)cc3)cc2)CC1.Cl.Cl`, the IC50 against Coagulation factor X is 200 nM; against Prothrombin it was more than 10000 nM. Further, in the assay filed under Mus musculus, the ED50 was 0.7 mg/kg.

In the case of `N=C(N)c1ccc2c(c1)nc(CN(C(=O)c1ccc(C(=O)O)cc1)c1ccc(OC3CCNC3)cc1)n2CC(=O)NC1CCCCC1` (centres undefined), the IC50 was 300 nM at Coagulation factor X and more than 10000 nM on Prothrombin.

The values above are taken from ChEMBL document CHEMBL1137163, “Structure-activity relationships of potent and selective factor Xa inhibitors: benzimidazole derivatives with the side chain oriented to the prime site of factor Xa” (Bioorg Med Chem Lett, 2004).
